Results on three compounds are retold here after patent US10005824B2, “Selective PYY compounds and uses thereof” (Novo Nordisk A/S, priority 2015, dated 2018).

Test [1] has as its target T1, human Y1 receptor (Homo sapiens, UniProt P25929).
T1 construct: expressed in transfected cells; host or cells: BHK-21 clone 6-482-8, IPTG-induced (membrane preparation)
T1 sequence (P25929 1-384): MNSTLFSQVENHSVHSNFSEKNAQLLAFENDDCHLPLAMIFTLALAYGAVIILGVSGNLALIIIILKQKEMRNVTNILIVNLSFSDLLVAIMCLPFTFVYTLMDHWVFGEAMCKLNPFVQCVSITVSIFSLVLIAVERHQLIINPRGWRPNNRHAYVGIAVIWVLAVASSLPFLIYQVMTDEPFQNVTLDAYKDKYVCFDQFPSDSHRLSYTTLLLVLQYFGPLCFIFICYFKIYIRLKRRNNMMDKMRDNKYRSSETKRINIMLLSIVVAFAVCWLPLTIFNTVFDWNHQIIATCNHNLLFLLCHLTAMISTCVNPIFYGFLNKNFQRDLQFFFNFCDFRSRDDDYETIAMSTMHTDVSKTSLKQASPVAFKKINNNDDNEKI
Put plainly: Scintillation proximity assay (SPA) receptor binding, Y1. As to the method:
(§1) The purpose of this example is to test the in vitro binding of the PYY compounds to the Y1, Y2, Y4 and Y5 receptor subtypes, respectively. The receptor binding affinity is a measure of affinity of a compound for the human Y1, Y2, Y4 and Y5 receptor subtypes, respectively.
(§2) Scintillation Proximity Assay (SPA)
(§3) NPY-Receptor Expressing Cell Lines.
(§4) All cells were cultured at +37° C. in a humidified atmosphere with 5% CO2. […] CHO-K1 cells stably expressing the human Y2 receptor (P49146, NPY2R_HUMAN, Uniprot) were cultured in DMEM F-12 with 10% FBS, 1% P/S, 150 μg/ml Hygromycin B and 10 μg/ml Puromycin antibiotic. CHO-K1 cells stably expressing the human Y4 receptor (P50391, NPY4R_HUMAN, Uniprot) were cultured in DMEM F-12 with 10% FBS, 1% P/S, 10 μg/ml Puromycin. HEK-293 cells stably expressing the human Y5 receptor (Q15761, NPY5R_HUMAN, Uniprot) were cultured in DMEM F-12 medium containing 10% FBS, 1% Penicillin-Streptomycin, 250 μg/ml G418 and 1 μg/ml puromycin.
The homogenate was centrifuged at 35000 g using an ultracentrifuge for 10 minutes at +4° C. and the supernatant was discarded and fresh homogenization buffer added. Homogenization of the pellet was repeated a total of three times.
Human Y receptor SPA binding assay were performed in white 96-well plates in a total volume of 200 μl per well.
(§5) Plates were sealed and incubated at +25° C. for 2 hours in a plate shaker set at 400 rpm and thereafter centrifuged at 1500 rpm for 10 minutes prior to reading of luminescence on a microplate scintillation and luminescence counter. […] Displacement of radioligand was measured as reduction in luminescence and IC50 values were calculated by nonlinear regression analysis of sigmoidal dose-response curves.

Test [2] concerns the target T2, human Y5 receptor (Homo sapiens, UniProt Q15761).
T2 construct: expressed in transfected cells; host or cells: HEK-293 (membrane preparation)
T2 sequence (Q15761 1-445): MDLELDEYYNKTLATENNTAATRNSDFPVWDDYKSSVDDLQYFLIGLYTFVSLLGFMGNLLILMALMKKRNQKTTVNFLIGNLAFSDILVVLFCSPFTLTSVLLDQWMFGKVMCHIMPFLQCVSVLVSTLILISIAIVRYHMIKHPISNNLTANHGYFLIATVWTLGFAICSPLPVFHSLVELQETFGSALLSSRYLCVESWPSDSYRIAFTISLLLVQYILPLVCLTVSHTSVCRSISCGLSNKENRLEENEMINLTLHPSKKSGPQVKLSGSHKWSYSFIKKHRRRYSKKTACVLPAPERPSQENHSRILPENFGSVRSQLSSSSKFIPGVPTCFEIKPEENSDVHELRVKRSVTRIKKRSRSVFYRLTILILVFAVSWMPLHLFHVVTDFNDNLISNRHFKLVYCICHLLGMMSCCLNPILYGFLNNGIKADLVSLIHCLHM
Put plainly: Scintillation proximity assay (SPA) receptor binding, Y5. Particulars: membranes of HEK-293 cells, [125I]-PYY(1-36). On the procedure:
as §1, §2, §3
as §4, with “puromycin. […]” for “puromycin.”
as §5

For test [3], the target named is T3, human NPY Y2 receptor (Homo sapiens, UniProt P49146).
T3 construct: host or cells: HEK-293 cells that also express a cAMP-sensitive calcium channel
T3 sequence (P49146 1-381): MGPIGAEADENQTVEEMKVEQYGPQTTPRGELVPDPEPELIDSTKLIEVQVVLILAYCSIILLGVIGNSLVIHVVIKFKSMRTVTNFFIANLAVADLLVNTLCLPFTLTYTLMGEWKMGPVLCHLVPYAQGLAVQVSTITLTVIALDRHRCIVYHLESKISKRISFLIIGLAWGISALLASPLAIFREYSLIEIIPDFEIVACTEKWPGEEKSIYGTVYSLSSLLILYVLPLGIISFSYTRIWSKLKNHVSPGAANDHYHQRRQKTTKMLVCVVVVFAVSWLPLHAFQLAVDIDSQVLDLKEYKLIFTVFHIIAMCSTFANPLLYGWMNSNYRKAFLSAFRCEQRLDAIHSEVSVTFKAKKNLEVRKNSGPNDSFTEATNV
Put plainly: Actone functional potency assay (Y2 in vitro potency, whole cell). The format is cell-based. From the text:
The purpose of this example is to test the activity, or potency, of the PYY compounds in vitro. The Y2 in vitro potency is the measure of the activation of the human Y2 receptor subtype in a whole cell assay.
Actone Functional Potency Assay
The Neuropeptide Y (NPY) receptors are Gi-coupled seven trans-membrane receptors that mainly signal through the cAMP dependent pathway by inhibiting adenylate cyclase activity which results in a decrease of cAMP production from ATP. The Actone assay is based on a modified calcium channel that has a selective binding for cAMP, resulting in cellular calcium influx, detected by a calcium responsive dye. In order to measure decreased levels of cAMP, as result of NPY receptor activation, the β1/β2-adrenoreceptor agonist, isoproterenol, is added to activate adenylate cyclase and increases cAMP levels in the cell. Decreased cellular calcium concentrations, reflecting a decrease of cAMP levels due to NPY receptor activation, is detected as a decrease in fluorescence from the calcium sensitive dye.

Each structure is given as a SMILES string.

Turning to `CC(C)CC(=O)N[C@@H](CCCNC(=N)N)C(=O)N1CCC[C@H]1C(=O)N[C@@H](CCC(=O)O)C(=O)N[C@@H](C)C(=O)N1CCC[C@H]1C(=O)N1CCC[C@H]1C(=O)N[C@@H](CCCCNC(=O)CC[C@H](NC(=O)COCCOCCNC(=O)CC[C@H](NC(=O)CCCCCCCCCCCCCCCCC(=O)O)C(=O)O)C(=O)O)C(=O)N[C@@H](CC(=O)O)C(=O)N[C@@H](C)C(=O)N[C@@H](CO)C(=O)N1CCC[C@H]1C(=O)N[C@@H](CCC(=O)O)C(=O)N[C@@H](CCC(=O)O)C(=O)N[C@@H](CC(C)C)C(=O)N[C@@H](CCC(N)=O)C(=O)N[C@@H](CCCNC(=N)N)C(=O)N[C@@H](Cc1ccc(O)cc1)C(=O)N[C@@H](Cc1ccc(O)cc1)C(=O)N[C@@H](C)C(=O)N[C@@H](CO)C(=O)N[C@@H](CC(C)C)C(=O)N[C@@H](CCCNC(=N)N)C(=O)N[C@@H](Cc1c[nH]cn1)C(=O)N[C@@H](Cc1ccc(O)cc1)C(=O)N[C@@H](Cc1ccc(O)cc1)C(=O)N[C@@H](CC(N)=O)C(=O)N[C@@H](Cc1c[nH]c2ccccc12)C(=O)N[C@@H](CC(C)C)C(=O)N[C@H](C(=O)N[C@@H](CCCNC(=N)N)C(=O)N[C@@H](CCC(N)=O)C(=O)N[C@@H](CCCNC(=N)N)C(=O)N[C@@H](Cc1ccc(O)cc1)C(N)=O)[C@@H](C)O` [Compound 56, N{alpha-4}-(3-Methylbutanoyl)-N{Epsilon-10}-[(4S)-4-carboxy-4-[[2-[2-[2-[[(4S)-4-carboxy-4-(17-carboxyheptadecanoylamino)butanoyl]amino]ethoxy]ethoxy]-acetyl]amino]butanoyl]-[Arg4,Pro9,Lys10,Gln18,Tyr28,Trp30,Leu31]-PYY(4-36)], the figures for the Ki in test [1] and in test [2] were more than 10000 nM and 279 nM, respectively.
For the compound `CC(C)CC(=O)N[C@@H](CCCNC(=N)N)C(=O)N1CCC[C@H]1C(=O)N[C@@H](CCC(=O)O)C(=O)N[C@@H](C)C(=O)N1CCC[C@H]1C(=O)NCC(=O)N[C@@H](CCCCNC(=O)CC[C@H](NC(=O)COCCOCCNC(=O)CC[C@H](NC(=O)CCCCCCCCCCCCCCCCC(=O)O)C(=O)O)C(=O)O)C(=O)N[C@@H](CC(=O)O)C(=O)N[C@@H](C)C(=O)N[C@@H](CO)C(=O)N1CCC[C@H]1C(=O)N[C@@H](CCC(=O)O)C(=O)N[C@@H](CCC(=O)O)C(=O)N[C@@H](CC(C)C)C(=O)N[C@@H](CCC(N)=O)C(=O)N[C@@H](CCCNC(=N)N)C(=O)N[C@@H](Cc1ccc(O)cc1)C(=O)N[C@@H](Cc1ccc(O)cc1)C(=O)N[C@@H](C)C(=O)N[C@@H](CO)C(=O)N[C@@H](CC(C)C)C(=O)N[C@@H](CCCNC(=N)N)C(=O)N[C@@H](Cc1c[nH]cn1)C(=O)N[C@@H](Cc1ccc(O)cc1)C(=O)N[C@@H](Cc1ccc(O)cc1)C(=O)N[C@@H](CC(N)=O)C(=O)N[C@@H](Cc1c[nH]c2ccccc12)C(=O)N[C@@H](CC(C)C)C(=O)N[C@H](C(=O)N[C@@H](CCCNC(=N)N)C(=O)N[C@@H](CCC(N)=O)C(=O)N[C@@H](CCCNC(=N)N)C(=O)N[C@@H](Cc1ccc(O)cc1)C(N)=O)[C@@H](C)O` [Compound 59, N{alpha-4}-(3-Methylbutanoyl)-N{Epsilon-10}-[(4S)-4-carboxy-4-[[2-[2-[2-[[(4S)-4-carboxy-4-(17-carboxyheptadecanoylamino)butanoyl]amino]ethoxy]ethoxy]-acetyl]amino]butanoyl]-[Arg4,Lys10,Gln18,Tyr28,Trp30,Leu31]-PYY-(4-36)], the Ki in test [1] was more than 10000 nM; in test [2], 279 nM.
For the compound `CC(C)CC(=O)N[C@@H](CCCNC(=N)N)C(=O)N1CCC[C@H]1C(=O)N[C@@H](CCC(=O)O)C(=O)N[C@@H](C)C(=O)N1CCC[C@H]1C(=O)NCC(=O)N[C@@H](CCCCNC(=O)CC[C@H](NC(=O)COCCOCCNC(=O)CC[C@H](NC(=O)CCCCCCCCCCCCCCCCC(=O)O)C(=O)O)C(=O)O)C(=O)N[C@@H](CC(=O)O)C(=O)N[C@@H](C)C(=O)N[C@@H](CO)C(=O)N1CCC[C@H]1C(=O)N[C@@H](CCC(=O)O)C(=O)N[C@@H](CCC(=O)O)C(=O)N[C@@H](CC(C)C)C(=O)N[C@@H](CCC(N)=O)C(=O)N[C@@H](CCCNC(=N)N)C(=O)N[C@@H](Cc1ccc(O)cc1)C(=O)N[C@@H](Cc1ccc(O)cc1)C(=O)N[C@@H](C)C(=O)N[C@@H](CCC(=O)O)C(=O)N[C@@H](CC(C)C)C(=O)N[C@@H](CCCNC(=N)N)C(=O)N[C@@H](Cc1c[nH]cn1)C(=O)N[C@@H](Cc1ccc(O)cc1)C(=O)N[C@@H](Cc1ccc(O)cc1)C(=O)N[C@@H](CC(N)=O)C(=O)N[C@@H](Cc1c[nH]c2ccccc12)C(=O)N[C@@H](CC(C)C)C(=O)N[C@H](C(=O)N[C@@H](CCCNC(=N)N)C(=O)N[C@@H](CCC(N)=O)C(=O)N[C@@H](CCCNC(=N)N)C(=O)N[C@@H](Cc1ccc(O)cc1)C(N)=O)[C@@H](C)O` [Compound 53, N{alpha-4}-(3-Methylbutanoyl)-N{Epsilon-10}-[(4S)-4-carboxy-4-[[2-[2-[2-[[(4S)-4-carboxy-4-(17-carboxyheptadecanoylamino)butanoyl]amino]ethoxy]ethoxy]-acetyl]amino]butanoyl]-[Arg4,Lys10,Gln18,Glu23,Tyr28,Trp30,Leu31]-PYY(4-36)], the EC50 in test [3] came out at 0.77 nM. In test [1], this compound had a Ki of more than 10000 nM.
